Key:
[1] = biological target: T1, SULT1A3 L67G (Homo sapiens, UniProt P0DMM9, L67G); test: Binding-site mutation effect on Ki CMP8, L67G; format: biochemical; settings: L67G versus wild type
T1 construct: N-His/GST/MBP triple-tag (N, cleaved yes); made in house; host or cells: E. coli BL21(DE3)
Method: Initial-Rate Studies. Initial-rate parameters for the labeled or mutant SULT1A3 constructs were determined using a previously described 1-HP assay (25). Briefly, reactions were initiated by addition of PAPS (0.50 mM, 17×Km) to a solution containing enzyme (20 nM, active sites), 1-HP (2.0 μM, ˜24×Km), and KPO4 (50 mM), pH 7.5, 25±2° C. Reactions were monitored via fluorescence change associated with the conversion of 1-HP to 1-HP-S (λex=325 nm, λem=370 nm). Keq for the 1-HP sulfonation reaction is […]. Given the reaction conditions outlined above, ≥99% of 1-HP is converted to 1-HP-S, and ˜0.4% of PAPS is converted to PAP at equilibrium. […] Reaction progress curves were analyzed to obtain initial-rate parameters as described previously (26,27).
Inhibition studies. Inhibition parameters were determined under conditions identical to those described above (see, Initial-Rate Studies) except that [1-HP] was increased to 5.0 μM (˜61×Km) and inhibitor concentration was varied between 0.20-20×Ki. Ki was obtained using a least-squares fit to the following partial inhibition equation (25,28): v=kcat·(Ki+(1/kcat inh)·[I])/(Ki+[I]), where kcat inh is enzyme turnover at saturating substrates and allosteric inhibitor.
Confirming the Structure. The structure was validated by testing its ability to predict the consequences of mutations on the initial-rate parameters of the enzyme. […]

[2] = biological target: SULT1A3 spin-labeled at Cys 116 (Homo sapiens, UniProt P0DMM9, Q116C); test: Initial-rate parameters, spin-labeled SULT1A3 mutant 116
Method: (§4) Covalent Tagging of SULT1A3 Cys Constructs. Labeling of the SULT1A3 Cys constructs was performed as described previously (17,18,21). Briefly, 3-maleimido-PROXYL (spin label) or N-cyclohexylmaleimide (diamagnetic control) was added to an enzyme containing solution at 20-fold excess over reactive Cys. Unreacted Cys was monitored using DNTB (17,18,21); reactions were considered complete when >98% of the Cys was labeled. Reaction conditions: SULT1A3 (50 μM, monomer), 3-maleimido-PROXYL or N-cyclohexylmaleimide (1.0 mM), PAP (0.50 mM), KPO4 (50 mM), pH 7.5, 4±2° C. To prepare samples for NMR, reaction mixtures were dialyzed three times against 40 volumes of PAP (0.50 mM), KPO4 (50 mM), pD 7.4, D2O (>95%), 4±2° C.
(§5) Initial-Rate Studies. Initial-rate parameters for the labeled or mutant SULT1A3 constructs were determined using a previously described 1-HP assay (25). […] Reactions were monitored via fluorescence change associated with the conversion of 1-HP to 1-HP-S (λex=325 nm, λem=370 nm). Keq for the 1-HP sulfonation reaction is −250. Given the reaction conditions outlined above, ≥99% of 1-HP is converted to 1-HP-S, and ˜0.4% of PAPS is converted to PAP at equilibrium. […] Reaction progress curves were analyzed to obtain initial-rate parameters as described previously (26,27).

[3] = biological target: SULT1A3 spin-labeled at Cys 198 (Homo sapiens, UniProt P0DMM9, E198C); test: Initial-rate parameters, spin-labeled SULT1A3 mutant 198
Method: as §4, §5

[4] = biological target: T2, SULT1A3 (Homo sapiens, UniProt P0DMM9); test: Pre-steady state binding of PAP to SULT1A3 (stopped-flow fluorescence); design: Wild-type and mutant SULT1A3 coding regions were inserted into a pGEX-6P expression vector; N-His/GST/MBP triple-tag (N, cleaved yes); made in house; host or cells: E. coli BL21(DE3); settings: PAP release, saturating CMP8
Method: The effect of CMP8 on PAP binding to SULT1A3 was monitored using a stopped-flow spectrofluorimeter (λex=290 nm, λem≥330 nm (cutoff filter)). […] Each kobs value was determined in triplicate and the averaged values are shown. kon and koff are given, respectively, by the slopes and intercepts obtained from linear least-squares fitting of the kobs vs [PAP] plots.
(§1) Pre-Steady State Binding Studies. The pre-steady state binding of PAP to SULT1A3 was monitored via ligand-induced enzyme fluorescence changes in SULT1A3 using an Applied Photophysics SX20 stopped-flow spectrofluorimeter (32). […] All reactions were pseudo first order in [PAP]. The observed rate constant (kobs) at a given [PAP] was taken as the average of three independent progress curves each obtained from a single-exponential fit of 6-9 averaged, binding progress curves. The rate constants, kon and koff, were obtained from the slopes and intercepts predicted by linear least-squares analysis of four-points kobs vs [PAP] plots.
Given that CMP8 interacts with the SULT1A3 cap, it was reasoned it might inhibit by stabilizing the cap-closed form(s) of the enzyme. To test this hypothesis, the microscopic rate constants for nucleotide binding and release were determined in the presence and absence of saturating CMP8. The binding reactions were monitored via intrinsic fluorescence changes associated with ligand binding (30-32) (see, Methods). The resulting kobs vs [PAP] plots are presented in FIG. 4. kon and koff are obtained, respectively, from the slopes and intercepts of the plots (30,31), see Table C. […] Thus, CMP8 does indeed slow nucleotide release by increasing Kiso and thus stabilizing the closed form of the cap.
as §1, with “(29).” for “(32).”

[5] = biological target: T2, SULT1A3; test: Dopamine sulfonation by SULT1A3-expressing HME cells; format: cell-based; settings: dopamine 100 μM, 24 hours, best-fit titration curve, read-out: EC50, inhibition of dopamine sulfonation
Method: Cells were incubated with 100 μM dopamine and incubation media was sampled for dopamine and dopamine sulfate at the indicated time intervals. The dopamine and dopamine sulfate levels in the SULT1A3 (+) strain are shown as red and blue dots, respectively. Only dopamine (green dots) was detected using the SULT1A3 (−) strain.
HME cells were incubated with dopamine (100 μM) and Compound 12 (at the indicated concentrations) for 24 hours at which time the dopamine (red dots) and dopamine sulfate (blue dots) levels were determined. […] The chromatography was performed using a PFP-HPLC column. […] Further, the data in Table A reveal that Compound 12 is highly specific for the SULT1A3 isoform.
HME cells expressing SULT1A3 were incubated for 24 hours with dopamine (100 μM) and Compound 23 (at the indicated concentrations) at which time the dopamine (red dots) and dopamine sulfate (blue dots) concentrations were determined using the methods associated with FIG. 10B.

[6] = biological target: Green Monkey (1A3) (Chlorocebus sabaeus, UniProt Z9LO20H8W3); test: Inhibition of SULT1A3 homologues in different species: Green Monkey; format: biochemical
Method: (§2) Compounds 12, 23 and 25 were also tested for Inhibition of SULT1A3 in different species.
(§3) Inhibition of SULT1A3 Homologues in Different Species. SULT1A3 is only expressed in humans and higher primates. SULT1D1 is the isoform expressed in dogs and rodents that sulfonates neurotransmitters and is most similar to SULT1A3. Three synthesized allosteres (12, 23, and 25) were tested against both 1A3 and 1D1 from different species in order to explore testing in animal models. […] Mice have been engineered such that their SULT1A1/2 enzymes have been knocked out and replaced with the human versions of those isoforms.

[7] = biological target: Mouse (1D1) (Mus musculus, UniProt Q3UZZ6); test: Inhibition of SULT1A3 homologues in different species: Mouse; format: biochemical
Method: as §2, §3

Sequence of Green Monkey (1A3) (Z9LO20H8W3 1-295): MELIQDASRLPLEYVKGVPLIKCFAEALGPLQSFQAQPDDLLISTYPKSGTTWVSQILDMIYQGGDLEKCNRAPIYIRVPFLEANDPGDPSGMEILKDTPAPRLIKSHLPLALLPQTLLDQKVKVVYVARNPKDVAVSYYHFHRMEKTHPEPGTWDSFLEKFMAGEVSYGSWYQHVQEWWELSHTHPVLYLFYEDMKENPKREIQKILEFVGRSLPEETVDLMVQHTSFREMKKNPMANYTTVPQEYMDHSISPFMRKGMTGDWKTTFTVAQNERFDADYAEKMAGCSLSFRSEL
T2 sequence (P0DMM9 whole entry): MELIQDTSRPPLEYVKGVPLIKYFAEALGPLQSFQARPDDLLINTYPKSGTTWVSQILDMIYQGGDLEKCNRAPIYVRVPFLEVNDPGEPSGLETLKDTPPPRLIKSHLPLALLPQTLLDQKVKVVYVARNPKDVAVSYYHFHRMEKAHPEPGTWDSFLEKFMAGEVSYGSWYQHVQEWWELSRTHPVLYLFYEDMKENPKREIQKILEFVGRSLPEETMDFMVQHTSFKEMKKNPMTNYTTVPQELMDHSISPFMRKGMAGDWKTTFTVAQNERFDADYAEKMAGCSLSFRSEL
Sequence of Mouse (1D1) (Q3UZZ6 whole entry): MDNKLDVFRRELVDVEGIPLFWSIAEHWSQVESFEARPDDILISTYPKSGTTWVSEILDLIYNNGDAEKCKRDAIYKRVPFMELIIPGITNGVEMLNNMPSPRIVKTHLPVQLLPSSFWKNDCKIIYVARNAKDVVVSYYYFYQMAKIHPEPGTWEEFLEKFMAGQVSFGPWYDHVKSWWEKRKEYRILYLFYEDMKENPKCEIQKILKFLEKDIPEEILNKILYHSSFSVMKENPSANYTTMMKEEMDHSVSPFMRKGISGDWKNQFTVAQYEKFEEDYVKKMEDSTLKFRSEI
Sequence of SULT1A3 spin-labeled at Cys 116 (P0DMM9 whole entry Q116C): as the sequence (P0DMM9 whole entry) above, with Q116C counted along it
Sequence of SULT1A3 spin-labeled at Cys 198 (P0DMM9 whole entry E198C): as the sequence (P0DMM9 whole entry) above, with E198C counted along it
T1 sequence (P0DMM9 whole entry L67G): as the sequence (P0DMM9 whole entry) above, with L67G counted along it

increase in Ki CMP8 [1] | Ki [2] | Ki [3] | koff (+CMP8)/koff (−CMP8), ratio of nucleotide off-rate constants [4] | EC50 [5] | Green Monkey (1A3) % inh [6] | Ki ([6]; parentheses one standard error) | Mouse (1D1) % inh [7] | Ki ([7]; parentheses one standard error) | Structure (SMILES)
5.3 fold | 0.037 µM | 0.046 µM | 0.41 (±0.05) | – | – | – | – | – | CC(C)Cc1ccc2cc(CO)ccc2n1 [Compound 8, (2-Isobutylquinolin-6-yl)methanol]
– | – | – | – | 0.25 ± 0.087 µM | 71 (3) % | 0.17 µM | 82 (2) % | 0.079 µM | CC(C)Cc1ccc2cc(CCC(N)=O)ccc2n1 [Compound 12]

From patent publication US12291504B2 (University of Pittsburgh—Of the Commonwealth System of …, priority 2018, dated 2025)
